Drawing on patent publication US10351547B2, “Somatostatin modulators and uses thereof” (priority 2016, dated 2019), this text covers EC50 for 32 compounds.

Broadly, the EC50 is the midpoint of the concentration-response curve.

Sequence of human SSTR2 (P30874 whole entry): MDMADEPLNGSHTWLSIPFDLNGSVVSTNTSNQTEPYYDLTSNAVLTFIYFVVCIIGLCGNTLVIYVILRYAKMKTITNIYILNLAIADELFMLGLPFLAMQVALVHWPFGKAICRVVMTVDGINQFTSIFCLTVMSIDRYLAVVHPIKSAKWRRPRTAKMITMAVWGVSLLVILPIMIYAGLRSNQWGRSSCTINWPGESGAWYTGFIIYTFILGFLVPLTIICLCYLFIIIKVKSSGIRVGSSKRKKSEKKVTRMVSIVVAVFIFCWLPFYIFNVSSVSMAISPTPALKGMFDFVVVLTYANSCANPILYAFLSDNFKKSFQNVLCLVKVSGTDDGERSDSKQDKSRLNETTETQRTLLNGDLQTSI

The first experiment concerns the target human SSTR2 (Homo sapiens (Human), UniProt P30874). Nature of the experiment: Human SSTR2 intracellular cAMP functional assay for agonists (HTRF). It is filed as cell-based.
Details: not given
The method, boiled down:
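Cells bearing human SSTR2 exposed to compound for 20 minutes at 37 °C; after lysis, cAMP measured by time-resolved fluorescence (HTRF) and converted via a standard curve. EC50 calculated from cAMP versus compound concentration.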
Background: In TR-FRET formats the signal depends on donor and acceptor labels being close together.
`Cc1cc(F)cc(-c2cnc3ccc(-c4cc(F)cc(C#N)c4O)cc3c2N2CC(CN3CCCCC3)C2)c1` [2-50, 5-fluoro-3-[3-(3-fluoro-5-methylphenyl)-4-[3-(piperidin-1-ylmethyl)azetidin-1-yl]quinolin-6-yl]-2-hydroxybenzonitrile] displayed a concentration for a half-maximal effect (EC50) of 10 to 100 nM. On the same count and under the same terms, to `Cc1cc(F)cc(-c2cnc3ccc(-c4cc(F)cc(C#N)c4O)cc3c2N2CC(CNCC(C)O)C2)c1` (centres unmarked) [2-51, 5-fluoro-3-[3-(3-fluoro-5-methylphenyl)-4-(3-{[(2-hydroxypropyl)amino]methyl}azetidin-1-yl)quinolin-6-yl]-2-hydroxybenzonitrile] belongs 10 to 100 nM; to `CCCNCC1CN(c2c(-c3cc(C)cc(F)c3)cnc3ccc(-c4cc(F)c(O)c(F)c4)cc23)C1` [2-52, 2,6-difluoro-4-[3-(3-fluoro-5-methylphenyl)-4-{3-[(propylamino)methyl]azetidin-1-yl}quinolin-6-yl]phenol], 10 to 100 nM. As to `N#Cc1cccc(-c2ccc3ncc(-c4cc(F)cc(F)c4)c(N4CCC(N)CC4)c3c2)c1OCC(=O)O` [2-56, 2-{2-[4-(4-aminopiperidin-1-yl)-3-(3,5-difluorophenyl)quinolin-6-yl]-6-cyanophenoxy}acetic acid], the concentration giving a half-maximal response (EC50) was in the range of 10 to 100 nM.

Regarding `N#Cc1cccc(-c2ccc3ncc(-c4cc(F)cc(F)c4)c(N4CCC(N)CC4)c3c2)c1OCCCC(=O)O` [2-57, 4-{2-[4-(4-aminopiperidin-1-yl)-3-(3,5-difluorophenyl)quinolin-6-yl]-6-cyanophenoxy}butanoic acid], the EC50 is 10 to 100 nM. Same read-out and setting: for `CO[C@H]1CN(c2c(-c3cc(F)cc(F)c3)cnc3ccc(-c4cccc(C#N)c4O)cc23)CC[C@H]1N` [2-61, 3-{4-[(3S,4R)-4-amino-3-methoxypiperidin-1-yl]-3-(3,5-difluorophenyl)quinolin-6-yl}-2-hydroxybenzonitrile] the value was 10 to 100 nM; for `CO[C@@H]1CN(c2c(-c3cc(F)cc(F)c3)cnc3ccc(-c4cccc(C#N)c4O)cc23)CC[C@@H]1N` [2-66, 3-{4-[(3R,4S)-4-amino-3-methoxypiperidin-1-yl]-3-(3,5-difluorophenyl)quinolin-6-yl}-2-hydroxybenzonitrile], 10 to 100 nM; for `N#Cc1cccc(-c2ccc3ncc(-c4cc(F)cc(OC5COC5)c4)c(N4CCC(N)CC4)c3c2)c1O` [2-69, 3-[4-(4-aminopiperidin-1-yl)-3-[3-fluoro-5-(oxetan-3-yloxy)phenyl]quinolin-6-yl]-2-hydroxybenzonitrile], 10 to 100 nM.

In turn, `CO/N=C/c1cc(F)cc(-c2cnc3ccc(-c4cccc(C#N)c4O)cc3c2N2CCC(N)CC2)c1` [2-70, 3-[4-(4-aminopiperidin-1-yl)-3-{3-fluoro-5-[(1E)-(methoxyimino)methyl]phenyl}quinolin-6-yl]-2-hydroxybenzonitrile] had an EC50 of 10 to 100 nM. Regarding `N#Cc1cccc(-c2ccc3ncc(-c4cc(F)cc(CN5CC(F)(F)C5)c4)c(N4CCC(N)CC4)c3c2)c1O` [2-71, 3-[4-(4-aminopiperidin-1-yl)-3-{3-[(3,3-difluoroazetidin-1-yl)methyl]-5-fluorophenyl}quinolin-6-yl]-2-hydroxybenzonitrile], the EC50 lay within 100 to 1000 nM. The compound `N#Cc1cccc(-c2ccc3ncc(-c4cc(F)cc(F)c4)c(N4CCC(N)CC4)c3c2)c1OC1COC1` [2-73, 3-[4-(4-aminopiperidin-1-yl)-3-(3,5-difluorophenyl)quinolin-6-yl]-2-(oxetan-3-yloxy)benzonitrile] returned an EC50 of 10 to 100 nM. In turn, `NC1CCN(c2c(-c3cc(F)cc(F)c3)cnc3ccc(-c4cncc(F)c4OC4COC4)cc23)CC1` [2-74, 1-[3-(3,5-difluorophenyl)-6-[5-fluoro-4-(oxetan-3-yloxy)pyridin-3-yl]quinolin-4-yl]piperidin-4-amine] gave an EC50 of 100 to 1000 nM.

As for `NC(=O)c1cnc(N2CCC2)c(-c2ccc3ncc(-c4cc(F)cc(F)c4)c(N4CCC(N)CC4)c3c2)c1` [2-76, 5-[4-(4-aminopiperidin-1-yl)-3-(3,5-difluorophenyl)quinolin-6-yl]-6-(azetidin-1-yl)pyridine-3-carboxamide], the EC50 lay in the range of 100 to 1000 nM. Still for that read-out and setting: to `CCON=Cc1cc(F)cc(-c2cnc3ccc(-c4cccc(C#N)c4O)cc3c2N2CCC(N)CC2)c1` [2-79, 3-[4-(4-aminopiperidin-1-yl)-3-{3-[(ethoxyimino)methyl]-5-fluorophenyl}quinolin-6-yl]-2-hydroxybenzonitrile] belongs 100 to 1000 nM. The same measure, in the same setting: to `CO/N=C/c1cccc(-c2ccc3ncc(-c4cc(F)cc(F)c4)c(N4CCC(N)CC4)c3c2)c1O` [2-81, 2-[4-(4-aminopiperidin-1-yl)-3-(3,5-difluorophenyl)quinolin-6-yl]-6-methoxyiminomethyl-phenol] belongs below 10 nM; to `CC[C@H](N)C1CN(c2c(-c3cc(C)cc(F)c3)cnc3ccc(-c4cc(F)cc(C#N)c4O)cc23)C1` [2-82, 3-(4-{3-[(1S)-1-aminopropyl]azetidin-1-yl}-3-(3-fluoro-5-methylphenyl)quinolin-6-yl)-5-fluoro-2-hydroxybenzonitrile], 10 to 100 nM.

Staying with this experiment, now noted: CHO-K1 cells stably expressing human SSTR2; NKH477-stimulated cAMP; read-out: EC50 (inhibition of cAMP activities via human SST2R).
With `Cc1cc(F)cc(-c2cnc3ccc(-c4cc(F)cc(C#N)c4O)cc3c2N2CC(CN3CC[C@H](F)C3)C2)c1` [2-49, 5-fluoro-3-[3-(3-fluoro-5-methylphenyl)-4-(3-{[(3 S)-3-fluoropyrrolidin-1-yl]methyl}azetidin-1-yl)quinolin-6-yl]-2-hydroxybenzonitrile], the EC50 was below 10 nM. The same measure, in the same setting: for `COCOc1c(C#N)cc(F)cc1-c1ccc2ncc(-c3cc(C)cc(F)c3)c(N3CC(CNCCCO)C3)c2c1` [2-53, 5-fluoro-3-[3-(3-fluoro-5-methylphenyl)-4-(3-{[(3-hydroxypropyl)amino]methyl}azetidin-1-yl)quinolin-6-yl]-2-(methoxymethoxy)benzonitrile] the value was below 10 nM; for `Cc1cc(F)cc(-c2cnc3ccc(-c4cc(F)cc(C#N)c4O)cc3c2N2CC(CNCCCO)C2)c1` [2-54, 5-fluoro-3-[3-(3-fluoro-5-methylphenyl)-4-(3-{[(3-hydroxypropyl)amino]methyl}azetidin-1-yl)quinolin-6-yl]-2-hydroxybenzonitrile], below 10 nM; for `CCCNCC1CN(c2c(-c3cc(C)cc(F)c3)cnc3ccc(-c4cc(F)c5[nH]c(=O)[nH]c5c4)cc23)C1` [2-55, 4-fluoro-6-[3-(3-fluoro-5-methylphenyl)-4-{3-[(propylamino)methyl]azetidin-1-yl}quinolin-6-yl]-2,3-dihydro-1H-1,3-benzodiazol-2-one], below 10 nM.

As for `N#Cc1cccc(-c2ccc3ncc(-c4cc(F)cc(F)c4)c(N4CC[C@@H](N)[C@H](F)C4)c3c2)c1O` [2-59, 3-{4-[(3R,4R)-4-amino-3-fluoropiperidin-1-yl]-3-(3,5-difluorophenyl)quinolin-6-yl}-2-hydroxybenzonitrile], the EC50 is below 10 nM. As to `COCOc1c(C#N)cccc1-c1ccc2ncc(-c3cc(F)cc(F)c3)c(N3CC[C@H](N)[C@H](OC)C3)c2c1` [2-62, 3-{4-[(3R,4S)-4-amino-3-methoxypiperidin-1-yl]-3-(3,5-difluorophenyl)quinolin-6-yl}-2-(methoxymethoxy)benzonitrile], the EC50 is below 10 nM.

For the compound `CC(=O)OCCOc1c(C#N)cccc1-c1ccc2ncc(-c3cc(F)cc(F)c3)c(N3CCC(N)CC3)c2c1` [2-64, 2-{2-[4-(4-aminopiperidin-1-yl)-3-(3,5-difluorophenyl)quinolin-6-yl]-6-cyanophenoxy}ethyl acetate], the EC50 is below 10 nM. With `N#Cc1cccc(-c2ccc3ncc(-c4cc(F)cc(F)c4)c(N4CCC(N)CC4)c3c2)c1OCCO` [2-65, 3-[4-(4-aminopiperidin-1-yl)-3-(3,5-difluorophenyl)quinolin-6-yl]-2-(2-hydroxyethoxy)benzonitrile], the EC50 was below 10 nM. In the case of `NC(=O)c1cccc(-c2ccc3ncc(-c4cc(F)cc(F)c4)c(N4CCC(N)CC4)c3c2)c1OC(CO)CO` [2-67, 3-[4-(4-aminopiperidin-1-yl)-3-(3,5-difluorophenyl)quinolin-6-yl]-2-[(1,3-dihydroxypropan-2-yl)oxy]benzamide], the EC50 was below 10 nM. For `COCCOc1c(C#N)cccc1-c1ccc2ncc(-c3cc(F)cc(F)c3)c(N3CCC(N)CC3)c2c1` [2-72, 3-[4-(4-aminopiperidin-1-yl)-3-(3,5-difluorophenyl)quinolin-6-yl]-2-(2-methoxyethoxy)benzonitrile], the concentration for a half-maximal effect (EC50) is below 10 nM.

With `N#Cc1cnc(N2CCC2)c(-c2ccc3ncc(-c4cc(F)cc(F)c4)c(N4CCC(N)CC4)c3c2)c1` [2-75, 5-[4-(4-aminopiperidin-1-yl)-3-(3,5-difluorophenyl)quinolin-6-yl]-6-(azetidin-1-yl)pyridine-3-carbonitrile], the EC50 is below 10 nM. The same measure, in the same setting: to `N#Cc1cccc(-c2ccc3ncc(-c4cc(F)cc(F)c4)c(N4CCC(N)CC4)c3c2)c1N` [2-77, 2-amino-3-[4-(4-aminopiperidin-1-yl)-3-(3,5-difluorophenyl)quinolin-6-yl]benzonitrile] belongs below 10 nM. Still for that read-out and setting: for `COCOc1c(C#N)cccc1-c1ccc2ncc(-c3cc(F)cc(F)c3)c(N3CCC(N)CC3)c2c1` [2-78, 3-[4-(4-aminopiperidin-1-yl)-3-(3,5-difluorophenyl)quinolin-6-yl]-2-(methoxymethoxy)benzonitrile] the value was below 10 nM; for `O=c1[nH]c2cc(-c3ccc4ncc(-c5cc(F)cc(F)c5)c(N5CC[C@H]6NCCO[C@@H]6C5)c4c3)cc(F)c2[nH]1` [2-80, trans-6-[3-(3,5-difluorophenyl)-4-{octahydro-1H-pyrido[3,4-b]morpholin-6-yl}quinolin-6-yl]-4-fluoro-2,3-dihydro-1H-1,3-benzodiazol-2-one], below 10 nM; for `COC(=O)Nc1c(F)cc(F)cc1-c1ccc2ncc(-c3cc(F)cc(F)c3)c(N3CCC(N)CC3)c2c1` [2-83, methyl N-{2-[4-(4-aminopiperidin-1-yl)-3-(3,5-difluorophenyl)quinolin-6-yl]-4,6-difluorophenyl}carbamate], below 10 nM. On to `COCOc1c(C#N)cccc1-c1ccc2ncc(-c3cc(F)cc(F)c3)c(N3CC[C@@H](N)[C@H](OC)C3)c2c1` [2-84], for which the EC50 was below 10 nM.
